The subject of one assay is H1299 ERCC1 WT cells. In words: Colony survival assay in H1299 ERCC1 WT cells. It counts as cell-based. The method, then: (§1) We used H460, NSCLC cells, to first assess the impact on colony survival by knocking down ERCC1-XPF in these cells. […] Next, to assess if colony survival is affected we titrated cisplatin in these cells using a fixed concentration of Hit 1(50 μM) or Hit 2 (25 and 50 μM). […] Next, we assessed cisplatin potentiation by treating cells at a fixed cisplatin concentration (cisplatin IC50 in H460 cells) with Hit 1 or 2 titration (Figure 4C, filled symbols). H460 cells were treated with compound for a total of 4 hours while cisplatin was added to the media after 2 hours of compound pre-treatment. […] We also titrated Hit 1 or Hit 2 alone in these cells and treated for 4 h. […] We also assessed the effects of Hit 2 in another NSCLC cell line (H1299), which was either ERCC1 wildtype (WT) or knockout (KO) (Figure 4E).
(§2) Colony survival assay in a total reaction volume of 2.4 mL in a six-well plate Cells were split and seeded at a density of 300-400 format. […]
(§3) with ≥50 cells were counted using a light microscope. […]
(§4) survival was expressed as the ratio of average number of into a linearized pCR4-TOPO vector and transformed colonies in drug treated cells versus control cells x 100. into OneShot TOP10 E. coli using the TOPO-TA Cloning The experiment was done in triplicate for each drug Kit for Sequencing (Thermofisher). […]

For another assay, the system named is H1299 ERCC1 KO cells. In words: Colony survival assay in H1299 ERCC1 KO cells. It counts as cell-based. The method, then: as §1, §2, §3, §4
The next assay relates to H460 xenografts. The following applies: for tumor growth, combination with cisplatin: 16168 20 mg/kg i.p. daily + cisplatin 3 mg/kg i.p. twice a week.
The test system of a further assay is APE1 endonuclease. Set-up: method as in PMID 18042731. To be noted: cited from earlier work.

Where two headings read alike, the source gives them in different places.

In the case of `Cc1ccc(S(=O)(=O)Oc2cc(S(=O)(=O)O)cc3cc(S(=O)(=O)O)cc(N)c23)cc1` [NSC16168], in the assay on H1299 ERCC1 WT cells, the “potentiation of cisplatin response, ERCC1 WT” value is given as “potentiated the cisplatin response”. Also, the “potentiation of cisplatin response, ERCC1 KO” value in the assay on H1299 ERCC1 KO cells is recorded as “no additional cisplatin potentiation”. The “tumor growth, combination with cisplatin” value is listed as “inhibited H460 tumor growth” with H460 xenografts and “significant effect on tumor growth compared with cisplatin alone” in the assay with H460 xenografts (listed as Hit 2). Also, in the assay on H460 xenografts (16168 20 mg/kg i.p. daily or cisplatin 3 mg/kg i.p. twice a week, 10 days), the “tumor growth, single agent” value is “tumor growth was minimally affected”. In addition, the half-maximal inhibitory concentration (IC50) in the assay with APE1 endonuclease is about 7 µM.

Source of the values: publication PMC5342726, “Identification of small molecule inhibitors of ERCC1-XPF that inhibit DNA repair and potentiate cisplatin efficacy in cancer cells” (Oncotarget, 2016).
